Non-standard residues stand in square brackets, D forms with d. Residues, ends and D or L forms follow the SMILES beside them. Cit = NC(=O)NCCC[C@H](N)C(=O)O
Columns and labels:
[1] = system: cultured fibroblasts; assay: Test 1: ATP dosage, energetic metabolism of cultured fibroblasts; format: cell-based; conditions: 1% active ingredient; fibroblasts 10^5 cells/ml, 2% fetal calf serum; control 26.7 +/- 5.2
Description: Test 1: influence of analogs of the citrullinylarginine natural dipeptide on the energetic metabolism of cultured fibroblasts through a triphosphate adenosine (ATP) dosage. Comparison with the purified natural dipeptide.
The fibroblasts cells are cultivated and seeded at a rate of 10^5 cells/ml in the presence of a growth factor-deprived medium (2% fetal calf serum).
On each cell suspension, the ATP quantity is measured by photometry, by establishing the decrease of absorbance at 340 nm according to following specific equations: • ATP+3-phosphoglycérate---->ADP+1,3-diphosphoglycérate • 1,3-diphosphoglycérate+NADH---->glycéraldéhyde-3-P+NAD+P

[2] = system: human fibroblast cell line; assay: Test 2: cell proliferation (cytostimulation), neutral red colorimetric test; format: cell-based; conditions: human fibroblasts, 2% fetal calf serum, OD 540 nm
Description: Test 2: evidence of the cytostimulating properties of the citrullinylarginine natural dipeptide analogs.
The test was performed on a human fibroblast cell line maintained in a culture medium filed with 2% fetal calf serum.
The assessment of the cell proliferation is carried out through a neutral red colorimetric test (Borenfreund E. and al. (1984), Toxicol. Lett., vol.24, pp.119). Cell growth variation is then obtained by measuring optical density (OD) at 540 nm, following the specific equation: […]

With `CC(=O)N[C@@H](CCCNC(N)=O)C(=O)N[C@@H](CCCNC(=N)N)C(=O)O` [NAc-Cit-Arg, N-acetyl-L-citrullinyl-L-arginine] (Ac-[Cit]-Arg-OH) the ATP quantity [1] was 90.7 +/− 6.5 nM/mg proteins, the “% stimulation” value ([2]; 0.016% active) was 5% and the “% stimulation” value ([2]; 0.031% active) was 26%. The “% stimulation” value ([2]; 0.063% active) was 34%, the “% stimulation” value ([2]; 0.125% active) was 40% and the “% stimulation” value ([2]; 0.5% active) was 45%.
With `N=C(N)NCCC[C@H](NC(=O)[C@@H](N)CCCNC(N)=O)C(=O)O` [purified Cit-Arg, citrullinylarginine] (H-[Cit]-Arg-OH) the ATP quantity [1] was 88.62 +/− 8 nM/mg proteins, the “% stimulation” value ([2]; 0.016% active) was 2% and the “% stimulation” value ([2]; 0.031% active) was 25%. The “% stimulation” value ([2]; 0.063% active) was 30%, the “% stimulation” value ([2]; 0.125% active) was 32.5% and the “% stimulation” value ([2]; 0.5% active) was 36%.
